Test results taken from article PMC10166615 (Bioorganic & Medicinal Chemistry, 2023).

Molecular target: SARS-CoV-2 3CLpro (Severe acute respiratory syndrome coronavirus 2, UniProt P0DTD1)
Experiment: biochemical
[1] = read-out: SARS-CoV-2 3CLpro Inhibition (%)

## CC(C)(C)[C@H](NC(=O)C(F)(F)F)C(=O)N1C[C@@H]2CCC[C@@H]2[C@H]1C(=O)N[C@H](C#N)C[C@@H]1CCNC1=O [1a, (1S,3aR,6aS)-N-((S)-1-cyano-2-((S)-2-oxopyrrolidin-3-yl)ethyl)-2-((S)-3,3-dimethyl-2-(2,2,2-trifluoroacetamido)butanoyl)octahydrocyclopenta[c]pyrrole-1-carboxamide]
  IC50: 18.1 ± 2.35 nM
[1]
  inhibition at 0.02 µM: 24%
  inhibition at 0.1 µM: 82.5%
  inhibition at 1 µM: 88.9%
  inhibition at 10 µM: 88.3%
